# Tests used:
# [1] = target: T1, WEE1 (Homo sapiens, UniProt P30291+Q96SW2); assay: Western-blot assay of substrate protein degradation in hPBMCs, WEE1; assay type: cell-based; settings: 24 hours of compound treatment, compounds tested at 50 nM and 500 nM (concentration of the table not stated)
# T1 construct: endogenous in cells; host or cells: hPBMCs (Milecell Biotechnologies)
# [2] = target: T2, IKZF1 (Homo sapiens, UniProt Q13422+Q96SW2); assay: Western-blot assay of substrate protein degradation in hPBMCs, IKZF1; assay type: cell-based; settings: 24 hours of compound treatment, compounds tested at 50 nM and 500 nM (concentration of the table not stated)
# T2 construct: endogenous in cells; host or cells: hPBMCs (Milecell Biotechnologies)
# [3] = target: T3, IKZF2 (Homo sapiens, UniProt Q96SW2+Q9UKS7); assay: Western-blot assay of substrate protein degradation in hPBMCs, IKZF2; assay type: cell-based; settings: 24 hours of compound treatment, compounds tested at 50 nM and 500 nM (concentration of the table not stated)
# T3 construct: endogenous in cells; host or cells: hPBMCs (Milecell Biotechnologies)
# [4] = target: T4, IKZF3 (Homo sapiens, UniProt Q96SW2+Q9UKT9); assay: Western-blot assay of substrate protein degradation in hPBMCs, IKZF3; assay type: cell-based; settings: 24 hours of compound treatment, compounds tested at 50 nM and 500 nM (concentration of the table not stated)
# T4 construct: endogenous in cells; host or cells: hPBMCs (Milecell Biotechnologies)
# [5] = target: T5, CK1α (Homo sapiens, UniProt P48729+Q96SW2); assay: Western-blot assay of substrate protein degradation in hPBMCs, CK1α; assay type: cell-based; settings: 24 hours of compound treatment, compounds tested at 50 nM and 500 nM (concentration of the table not stated)
# T5 construct: endogenous in cells; host or cells: hPBMCs (Milecell Biotechnologies)
# [6] = target: T6, GSPT1 (Homo sapiens, UniProt P15170+Q96SW2); assay: Western-blot assay of substrate protein degradation in hPBMCs, GSPT1; assay type: cell-based; settings: 24 hours of compound treatment, compounds tested at 50 nM and 500 nM (concentration of the table not stated)
# T6 construct: endogenous in cells; host or cells: hPBMCs (Milecell Biotechnologies)
# [7] = target: T7, human Cereblon WT GST-tagged protein (Homo sapiens, UniProt Q96SW2); assay: CRBN-binding affinity by HTRF (CEREBLON BINDING kit); settings: HTRF inhibitory activity, CEREBLON BINDING kit; read-out: HTRF IC50
# T7 construct: purchased CISBIO 64BDCRBNPEH
# [8] = test system: MM.1R; assay: Tumor cell proliferation inhibition (CellTiter-Meiluncell Luminescent Cell Viability Assay), MM.1R; settings: Homo sapiens, 96 h, read-out: inhibitory activity (IC50, nM) against tumor cells proliferation, MM.1R
# Protocol: (§1) The tumor cells used herein were cultured in a cell culture medium listed in table 2 at 37°C in an incubator with 5% CO2. Prior to experimentation, all cell lines used were correctly identified by STR profiling, and tested negative for mycoplasma contamination using a mycoplasma detection kit through routine screenings.
# (§2) On the following day, the test compounds of the present disclosure were subjected to serial dilution. […] Subsequently, 0.5 µL of the test compound dilution was transferred into the 96-well plate containing the cells, with each well containing 100 µL of cell culture medium. […] Into the 96-well plate, the diluted test compounds and corresponding detection reagents were added, resulting in final test compound concentrations of 500 nM and 10 nM, respectively. The experimental procedure is described below using the diluted 2 µM test compound as an example.
# (§3) After the cells were treated with the compounds of the present disclosure for a specified period (the treatment durations were shown in Table 3), the cell viability assay reagent was added to the culture medium according to the kit's instructions to determine cell viability. […] All controls were treated using the same procedure as the compounds of the present disclosure. The growth inhibition curves for the compounds of the present disclosure were plotted using Prism GraphPad software, and the IC50 values were calculated therefrom.
# [9] = test system: Jurkat; assay: Tumor cell proliferation inhibition (CellTiter-Meiluncell Luminescent Cell Viability Assay), Jurkat; settings: Homo sapiens, 96 h, read-out: inhibitory activity (IC50, nM) against tumor cells proliferation, Jurkat
# [10] = test system: CAL-62; assay: Tumor cell proliferation inhibition (CellTiter-Meiluncell Luminescent Cell Viability Assay), CAL-62; settings: Homo sapiens, CAL-62, 96 h, read-out: inhibitory activity (IC50, nM) against tumor cells proliferation, CAL-62
# [11] = test system: Human acute T lymphocytic leukemia cells (Molt-4); assay: Tumor cell proliferation inhibition (CellTiter-Meiluncell Luminescent Cell Viability Assay), Molt-4; settings: MOLT-4, 96 h, read-out: inhibitory activity (IC50, nM) against tumor cells proliferation, Molt 4
# Protocol: as §1, §2, §3
# [12] = test system: NCI-H1975; assay: Tumor cell proliferation inhibition (CellTiter-Meiluncell Luminescent Cell Viability Assay), NCI-H1975; settings: Homo sapiens, NCI-H1975, 96 h, read-out: inhibitory activity (IC50, nM) against tumor cells proliferation, H1975
# [13] = test system: Human breast cancer cells (MDA-MB-231); assay: Tumor cell proliferation inhibition (CellTiter-Meiluncell Luminescent Cell Viability Assay), MDA-MB-231; settings: MDA-MB-231, 96 h, read-out: inhibitory activity (IC50, nM) against tumor cells proliferation, MDA-MB-231
# T3 sequence (Q9UKS7 whole entry): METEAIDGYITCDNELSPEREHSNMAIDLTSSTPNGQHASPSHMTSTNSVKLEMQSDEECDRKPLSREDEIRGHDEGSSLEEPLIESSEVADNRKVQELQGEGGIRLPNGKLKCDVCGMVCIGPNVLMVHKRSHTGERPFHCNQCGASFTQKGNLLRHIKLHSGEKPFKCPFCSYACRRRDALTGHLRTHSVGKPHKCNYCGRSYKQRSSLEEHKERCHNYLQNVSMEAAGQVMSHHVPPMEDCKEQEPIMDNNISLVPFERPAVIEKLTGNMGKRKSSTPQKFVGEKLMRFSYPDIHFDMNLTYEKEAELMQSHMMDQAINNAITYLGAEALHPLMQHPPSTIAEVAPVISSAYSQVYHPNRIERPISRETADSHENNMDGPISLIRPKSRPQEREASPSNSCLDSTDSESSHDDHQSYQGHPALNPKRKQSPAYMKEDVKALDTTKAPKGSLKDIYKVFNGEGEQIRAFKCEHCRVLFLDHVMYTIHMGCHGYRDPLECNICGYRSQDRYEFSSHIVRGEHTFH
# T3 sequence (Q96SW2 whole entry): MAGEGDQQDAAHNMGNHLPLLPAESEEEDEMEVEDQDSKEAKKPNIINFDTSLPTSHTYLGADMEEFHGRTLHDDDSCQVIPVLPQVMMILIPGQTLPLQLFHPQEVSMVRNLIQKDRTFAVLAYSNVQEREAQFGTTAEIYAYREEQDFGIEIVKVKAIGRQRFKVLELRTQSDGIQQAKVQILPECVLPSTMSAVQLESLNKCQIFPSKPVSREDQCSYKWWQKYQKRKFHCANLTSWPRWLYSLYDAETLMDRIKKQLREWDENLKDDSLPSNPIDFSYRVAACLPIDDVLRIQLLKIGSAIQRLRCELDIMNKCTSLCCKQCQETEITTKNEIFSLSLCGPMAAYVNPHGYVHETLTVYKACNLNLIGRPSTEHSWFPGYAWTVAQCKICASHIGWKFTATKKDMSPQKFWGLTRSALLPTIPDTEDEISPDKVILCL
# T3 sequence (Q16531 whole entry partner): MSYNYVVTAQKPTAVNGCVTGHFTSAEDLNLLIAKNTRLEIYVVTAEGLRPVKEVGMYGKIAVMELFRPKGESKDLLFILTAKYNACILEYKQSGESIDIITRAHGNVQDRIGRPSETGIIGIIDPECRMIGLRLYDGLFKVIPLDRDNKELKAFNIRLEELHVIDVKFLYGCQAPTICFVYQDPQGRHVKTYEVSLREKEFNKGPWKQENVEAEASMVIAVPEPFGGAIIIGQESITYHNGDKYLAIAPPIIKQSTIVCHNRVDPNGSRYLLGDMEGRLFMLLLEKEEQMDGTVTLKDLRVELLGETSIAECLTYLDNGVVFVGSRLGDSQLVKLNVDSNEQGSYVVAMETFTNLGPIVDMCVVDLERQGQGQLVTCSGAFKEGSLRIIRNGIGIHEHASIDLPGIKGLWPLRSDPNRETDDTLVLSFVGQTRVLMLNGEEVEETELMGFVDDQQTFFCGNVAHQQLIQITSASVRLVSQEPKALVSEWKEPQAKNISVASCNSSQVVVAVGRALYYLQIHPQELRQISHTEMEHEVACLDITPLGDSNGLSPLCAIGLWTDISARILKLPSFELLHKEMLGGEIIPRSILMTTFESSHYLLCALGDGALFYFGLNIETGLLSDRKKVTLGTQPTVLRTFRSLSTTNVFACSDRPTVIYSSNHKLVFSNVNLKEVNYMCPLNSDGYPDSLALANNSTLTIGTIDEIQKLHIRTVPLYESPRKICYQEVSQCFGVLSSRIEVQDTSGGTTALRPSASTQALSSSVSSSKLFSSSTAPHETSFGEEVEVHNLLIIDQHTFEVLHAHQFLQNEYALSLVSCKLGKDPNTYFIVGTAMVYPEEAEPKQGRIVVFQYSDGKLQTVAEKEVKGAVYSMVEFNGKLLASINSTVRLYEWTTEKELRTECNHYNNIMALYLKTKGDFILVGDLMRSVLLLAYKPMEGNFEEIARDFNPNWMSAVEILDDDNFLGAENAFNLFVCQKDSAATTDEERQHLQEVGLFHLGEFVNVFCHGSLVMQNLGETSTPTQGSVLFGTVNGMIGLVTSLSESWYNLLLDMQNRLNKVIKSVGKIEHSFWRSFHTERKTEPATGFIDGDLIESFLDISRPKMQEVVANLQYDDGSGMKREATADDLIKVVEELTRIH
# T2 sequence (Q13422 whole entry): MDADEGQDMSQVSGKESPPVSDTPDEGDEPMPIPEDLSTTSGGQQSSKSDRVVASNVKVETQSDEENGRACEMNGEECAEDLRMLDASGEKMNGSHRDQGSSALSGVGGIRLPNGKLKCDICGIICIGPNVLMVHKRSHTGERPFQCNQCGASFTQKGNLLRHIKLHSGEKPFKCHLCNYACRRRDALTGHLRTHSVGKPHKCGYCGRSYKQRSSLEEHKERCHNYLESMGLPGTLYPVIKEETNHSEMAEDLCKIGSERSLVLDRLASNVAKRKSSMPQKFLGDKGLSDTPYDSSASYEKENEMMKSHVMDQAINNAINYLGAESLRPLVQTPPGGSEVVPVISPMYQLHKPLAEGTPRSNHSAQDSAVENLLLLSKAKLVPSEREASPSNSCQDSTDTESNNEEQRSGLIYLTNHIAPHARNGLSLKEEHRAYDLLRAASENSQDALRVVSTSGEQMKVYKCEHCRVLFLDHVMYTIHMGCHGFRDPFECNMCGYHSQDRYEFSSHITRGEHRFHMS
# T2 sequence (Q96SW2 whole entry): as the sequence (Q96SW2 whole entry) above
# T2 sequence (Q16531 whole entry partner): as the sequence (Q16531 whole entry partner) above
# T6 sequence (P15170 whole entry): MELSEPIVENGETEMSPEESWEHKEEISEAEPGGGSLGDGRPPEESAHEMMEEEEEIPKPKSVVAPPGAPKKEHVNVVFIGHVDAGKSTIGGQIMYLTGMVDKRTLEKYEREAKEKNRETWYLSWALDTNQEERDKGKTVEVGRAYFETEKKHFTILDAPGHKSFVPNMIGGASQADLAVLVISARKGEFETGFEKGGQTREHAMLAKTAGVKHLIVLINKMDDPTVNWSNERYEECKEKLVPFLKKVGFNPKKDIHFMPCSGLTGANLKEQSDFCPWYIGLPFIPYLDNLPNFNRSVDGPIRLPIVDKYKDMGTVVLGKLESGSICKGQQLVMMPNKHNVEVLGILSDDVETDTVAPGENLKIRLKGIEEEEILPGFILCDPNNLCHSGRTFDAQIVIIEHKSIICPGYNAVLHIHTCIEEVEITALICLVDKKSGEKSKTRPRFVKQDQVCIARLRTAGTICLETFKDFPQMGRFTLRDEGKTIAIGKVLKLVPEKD
# T6 sequence (Q96SW2 whole entry): as the sequence (Q96SW2 whole entry) above
# T6 sequence (Q16531 whole entry partner): as the sequence (Q16531 whole entry partner) above
# T4 sequence (Q9UKT9 whole entry): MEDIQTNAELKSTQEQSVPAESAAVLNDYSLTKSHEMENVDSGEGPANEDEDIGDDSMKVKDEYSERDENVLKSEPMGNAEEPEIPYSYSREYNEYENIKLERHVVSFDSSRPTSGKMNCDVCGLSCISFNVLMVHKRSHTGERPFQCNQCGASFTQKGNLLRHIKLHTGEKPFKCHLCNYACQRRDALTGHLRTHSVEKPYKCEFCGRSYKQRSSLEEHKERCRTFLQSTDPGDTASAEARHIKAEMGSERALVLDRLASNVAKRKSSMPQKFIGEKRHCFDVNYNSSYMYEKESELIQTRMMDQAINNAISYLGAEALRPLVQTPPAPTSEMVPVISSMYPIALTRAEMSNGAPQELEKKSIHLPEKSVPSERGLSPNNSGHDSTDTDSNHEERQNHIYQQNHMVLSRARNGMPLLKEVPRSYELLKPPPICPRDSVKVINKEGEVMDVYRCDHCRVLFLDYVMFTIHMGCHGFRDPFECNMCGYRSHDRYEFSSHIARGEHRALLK
# T4 sequence (Q96SW2 whole entry): as the sequence (Q96SW2 whole entry) above
# T4 sequence (Q16531 whole entry partner): as the sequence (Q16531 whole entry partner) above
# T1 sequence (P30291 whole entry): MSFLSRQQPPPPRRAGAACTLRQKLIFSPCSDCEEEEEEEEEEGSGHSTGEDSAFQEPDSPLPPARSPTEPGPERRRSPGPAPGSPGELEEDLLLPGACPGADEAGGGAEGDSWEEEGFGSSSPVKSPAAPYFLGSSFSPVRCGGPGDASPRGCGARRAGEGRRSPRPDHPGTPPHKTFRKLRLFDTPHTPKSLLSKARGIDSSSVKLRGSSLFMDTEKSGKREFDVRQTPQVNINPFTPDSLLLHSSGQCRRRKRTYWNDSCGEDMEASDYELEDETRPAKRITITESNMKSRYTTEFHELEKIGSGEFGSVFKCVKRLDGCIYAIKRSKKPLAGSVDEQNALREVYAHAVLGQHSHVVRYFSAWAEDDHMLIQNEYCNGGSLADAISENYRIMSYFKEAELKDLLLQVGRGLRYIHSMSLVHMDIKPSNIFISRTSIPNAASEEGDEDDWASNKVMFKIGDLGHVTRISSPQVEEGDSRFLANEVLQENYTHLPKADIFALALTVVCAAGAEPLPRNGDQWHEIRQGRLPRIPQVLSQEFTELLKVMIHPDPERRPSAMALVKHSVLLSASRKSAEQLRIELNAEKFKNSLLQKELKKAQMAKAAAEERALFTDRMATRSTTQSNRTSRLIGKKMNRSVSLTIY
# T1 sequence (Q96SW2 whole entry): as the sequence (Q96SW2 whole entry) above
# T1 sequence (Q16531 whole entry partner): as the sequence (Q16531 whole entry partner) above
# T7 sequence (Q96SW2 whole entry): as the sequence (Q96SW2 whole entry) above
SMILES,IC50 [7] [µM],IC50 [8] [nM],IC50 [9] [nM],IC50 [10] [nM],IC50 [11] [nM],IC50 [12] [nM],IC50 [13] [nM],Weel substrate protein remaining % [1],IKZF 1 substrate protein remaining % [2],IKZF2 substrate protein remaining % [3],IKZF3 substrate protein remaining % [4],CK1a substrate protein remaining % [5],GSPT1 substrate protein remaining % [6]
"O=C1CCC(N2Cc3cc(CN4CCN(c5cccc(F)c5F)CC4)ccc3C2=O)C(=O)N1 (stereo not shown) [GT-04515, 3-(5-((4-(2,3-difluorophenyl)piperazin-1-yl)methyl)-1-oxoisoindolin-2-yl)piperidine-2,6-dione]",0.5 to 1,5 to 10,50 to 100,10 to 50,5 to 10,50 to 100,50 to 100,A (0% ≤ substrate protein remaining % ≤ 80%),A (0% ≤ substrate protein remaining % ≤ 80%),A (0% ≤ substrate protein remaining % ≤ 80%),A (0% ≤ substrate protein remaining % ≤ 80%),A (0% ≤ substrate protein remaining % ≤ 80%),A (0% ≤ substrate protein remaining % ≤ 80%)
"O=C1CCC(N2Cc3cc(CN4CCN(c5cccc(Cl)c5Cl)CC4)c(F)cc3C2=O)C(=O)N1 (stereo not shown) [GT-04527, 3-(5-((4-(2,3-dichlorophenyl)piperazin-1-yl)methyl)-6-fluoro-1-oxoisoindolin-2-yl)piperidine-2,6-dione]",,5 to 10,500 to 1000,1 to 5,1 to 5,10 to 50,10 to 50,A (0% ≤ substrate protein remaining % ≤ 80%),B (80%< substrate protein remaining %≤ 100%),A (0% ≤ substrate protein remaining % ≤ 80%),A (0% ≤ substrate protein remaining % ≤ 80%),A (0% ≤ substrate protein remaining % ≤ 80%),A (0% ≤ substrate protein remaining % ≤ 80%)
"Cc1cccc(N2CCN(Cc3ccc4c(c3)CN(C3CCC(=O)NC3=O)C4=O)CC2)n1 (stereo not shown) [GT-04530, 3-(5-((4-(6-methylpyridin-2-yl)piperazin-1-yl)methyl)-1-oxoisoindolin-2-yl)piperidine-2,6-dione]",0.5 to 1,10 to 50,5 to 10,10 to 50,10 to 50,100 to 500,50 to 100,A (0% ≤ substrate protein remaining % ≤ 80%),A (0% ≤ substrate protein remaining % ≤ 80%),A (0% ≤ substrate protein remaining % ≤ 80%),A (0% ≤ substrate protein remaining % ≤ 80%),A (0% ≤ substrate protein remaining % ≤ 80%),A (0% ≤ substrate protein remaining % ≤ 80%)
"O=C1CCC(N2Cc3cc(CN4CCN(c5ccc(F)cn5)CC4)ccc3C2=O)C(=O)N1 (stereo not shown) [GT-04531, 3-(5-((4-(5-fluoropyridin-2-yl)piperazin-1-yl)methyl)-1-oxoisoindolin-2-yl)piperidine-2,6-dione]",0.5 to 1,10 to 50,5 to 10,10 to 50,10 to 50,100 to 500,100 to 500,A (0% ≤ substrate protein remaining % ≤ 80%),A (0% ≤ substrate protein remaining % ≤ 80%),A (0% ≤ substrate protein remaining % ≤ 80%),A (0% ≤ substrate protein remaining % ≤ 80%),A (0% ≤ substrate protein remaining % ≤ 80%),A (0% ≤ substrate protein remaining % ≤ 80%)

# The next lines start with results.
IC50 [7] [µM],IC50 [8] [nM],IC50 [9] [nM],IC50 [10] [nM],IC50 [11] [nM],IC50 [12] [nM],IC50 [13] [nM],SMILES,Weel substrate protein remaining % [1],IKZF 1 substrate protein remaining % [2],IKZF2 substrate protein remaining % [3],IKZF3 substrate protein remaining % [4],CK1a substrate protein remaining % [5],GSPT1 substrate protein remaining % [6]
< 0.5,100 to 500,50 to 100,100 to 500,50 to 100,,,"O=C1CCC(N2Cc3cc(CN4CCN(c5cncc(Cl)c5Cl)CC4)ccc3C2=O)C(=O)N1 (stereo not shown) [GT-04538, 3-(5-((4-(4,5-dichloropyridin-3-yl)piperazin-1-yl)methyl)-1-oxoisoindolin-2-yl)piperidine-2,6-dione]",A (0% ≤ substrate protein remaining % ≤ 80%),A (0% ≤ substrate protein remaining % ≤ 80%),A (0% ≤ substrate protein remaining % ≤ 80%),A (0% ≤ substrate protein remaining % ≤ 80%),A (0% ≤ substrate protein remaining % ≤ 80%),A (0% ≤ substrate protein remaining % ≤ 80%)
0.5 to 1,10 to 50,10 to 50,50 to 100,10 to 50,,,"O=C1CCC(N2Cc3cc(CN4CCN(c5cc(F)ccc5F)CC4)ccc3C2=O)C(=O)N1 (stereo not shown) [GT-04539, 3-(5-((4-(2,5-difluorophenyl)piperazin-1-yl)methyl)-1-oxoisoindolin-2-yl)piperidine-2,6-dione]",A (0% ≤ substrate protein remaining % ≤ 80%),A (0% ≤ substrate protein remaining % ≤ 80%),A (0% ≤ substrate protein remaining % ≤ 80%),A (0% ≤ substrate protein remaining % ≤ 80%),A (0% ≤ substrate protein remaining % ≤ 80%),A (0% ≤ substrate protein remaining % ≤ 80%)
0.5 to 1,100 to 500,50 to 100,100 to 500,50 to 100,,,"O=C1CCC(N2Cc3cc(CN4CCN(c5c(F)cccc5F)CC4)ccc3C2=O)C(=O)N1 (stereo not shown) [GT-04540, 3-(5-((4-(2,6-difluorophenyl)piperazin-1-yl)methyl)-1-oxoisoindolin-2-yl)piperidine-2,6-dione]",A (0% ≤ substrate protein remaining % ≤ 80%),A (0% ≤ substrate protein remaining % ≤ 80%),A (0% ≤ substrate protein remaining % ≤ 80%),A (0% ≤ substrate protein remaining % ≤ 80%),B (80%< substrate protein remaining %≤ 100%),A (0% ≤ substrate protein remaining % ≤ 80%)
0.5 to 1,100 to 500,50 to 100,10 to 50,100 to 500,,,"Cc1ccc(N2CCN(Cc3ccc4c(c3)CN(C3CCC(=O)NC3=O)C4=O)CC2)s1 (stereo not shown) [GT-04546, 3-(5-((4-(5-methylthiophen-2-yl)piperazin-1-yl)methyl)-1-oxoisoindolin-2-yl)piperidine-2,6-dione]",A (0% ≤ substrate protein remaining % ≤ 80%),A (0% ≤ substrate protein remaining % ≤ 80%),A (0% ≤ substrate protein remaining % ≤ 80%),A (0% ≤ substrate protein remaining % ≤ 80%),A (0% ≤ substrate protein remaining % ≤ 80%),A (0% ≤ substrate protein remaining % ≤ 80%)
0.5 to 1,10 to 50,10 to 50,10 to 50,10 to 50,,,"O=C1CCC(N2Cc3cc(CN4CCC(c5ccnc(Cl)c5Cl)CC4)ccc3C2=O)C(=O)N1 (stereo not shown) [GT-04560, 3-(5-((4-(2,3-dichloropyridin-4-yl)piperidin-1-yl)methyl)-1-oxoisoindolin-2-yl)piperidine-2,6-dione]",A (0% ≤ substrate protein remaining % ≤ 80%),A (0% ≤ substrate protein remaining % ≤ 80%),A (0% ≤ substrate protein remaining % ≤ 80%),A (0% ≤ substrate protein remaining % ≤ 80%),A (0% ≤ substrate protein remaining % ≤ 80%),A (0% ≤ substrate protein remaining % ≤ 80%)
